From patent publication EP0934252B1, “AMIDE DERIVATIVES AND THEIR USE AS PESTICIDES” (BAYER AG, priority 1996, dated 1998)

Experiments:
[1] = logP (physical data of the preparation examples); assay type: physicochemical
[2] = system: Phytophthora infestans; assay type: in vivo; conditions: Tomate, protektiv; for Wirkungsgrad in %: Aufwandmenge an Wirkstoff 50 g/ha, evaluated 3 days after inoculation, 0 % = as control, 100 % = no infestation; for Wirkungsgrad: Wirkstoffaufwandmenge 50 g/ha, summary sentence in the text for both compounds

Question: Which logP [1] does the source give for `COc1ccc(CCNC(=O)C(=O)c2ccc3c(c2)CCCC3)cc1OC` [Beispiel 1, N-[2-(3,4-Dimethoxyphenyl)-ethyl]-2-oxo-2-(5,6,7,8-tetrahydronaphthalin-2-yl)-acetamid] here?
Answer: Its logP is 3.24.

Question: And the Wirkungsgrad in % [2]?
Answer: Its Wirkungsgrad in % is 95%.

Question: And the Wirkungsgrad [2]?
Answer: Its Wirkungsgrad is 90 -95%.

Question: Which logP [1] does the source give for `COc1ccc(CCNC(=O)C(O)c2ccc3c(c2)CCCC3)cc1OC` (stereo not shown) [Beispiel 2, N-[2-(3,4-Dimethoxyphenyl)-ethyl]-2-hydroxy-2-(5,6,7,8-tetrahydronaphthalin-2-yl)-acetamid] here?
Answer: Its logP is 2.43.

Question: For `COc1ccc(CCNC(=O)C(=O)c2ccc3c(c2)CCC3)cc1OC` [Beispiel 3], which logP [1] is on record?
Answer: The logP was 2.92.

Question: And the Wirkungsgrad in % [2]?
Answer: The Wirkungsgrad in % was 90%.

Question: And the Wirkungsgrad [2]?
Answer: The Wirkungsgrad was 90 -95%.

Question: Which logP [1] does the source give for `COc1ccc(CCNC(=O)C(=O)c2ccc3c(c2)CCCCC3)cc1OC` [Beispiel 4] here?
Answer: The logP was 3.57.

Question: With `COc1ccc(CCNC(=O)C(O)c2ccc3c(c2)CCC3)cc1OC` (stereo not shown) [Beispiel 5] as the compound, how does the logP [1] read?
Answer: Its logP is 2.19.

Question: Which logP [1] does the source give for `COc1ccc(CCNC(=O)C(O)c2ccc3c(c2)CCCCC3)cc1OC` (stereo not shown) [Beispiel 6] here?
Answer: Its logP is 2.7.
